How the values were obtained:
[1] = tested on: ticks (Haemaphysalis longicornis); test: Pesticidal activity on ticks in filter paper test; details: 48 h, 100 mg/m^2, non-blood-fed young ticks, 2 days
Procedure: Pesticidal Activity on Ticks (Haemaphysalis longicornis) in Filter Paper Test
Each (5 mg) of the present hydrazide compounds (1) and (2) was dissolved in acetone (10 mL), and this acetone solution (1 mL) was uniformly applied onto one side of a filter paper (TOYO No. 2; 5×10 cm; the surface area of the filter paper was 50 cm^2, and thus the amount of the present hydrazide compound applied was 100 mg/m^2). After drying, said filter paper was folded, and the both sides of the paper were clipped to form a bag. Into this bag, test ticks (Haemaphysalis longicornis, non-blood-fed young ticks, 10 ticks/group) were added, and the opening was clipped to seal the bag. Two (2) days later, the number of dead ticks was examined and the mortality was calculated by the following formula:
Mortality (%)=100×(number of dead ticks/number of ticks tested)

[2] = tested on: cat fleas (Ctenocephalides felis); test: Oral administration against mouse-infested cat fleas; type: in vivo; details: 20 mg in 10 mL test solution at 10 mL per 1 kg body weight, fleas deposited after administration, 2 days later
Procedure: Oral Administration Against Mouse-Infested Cat Fleas (Ctenocephalides Felis)
(§1) The present hydrazide compound (1) (20 mg) was dissolved in dimethylformamide (680 mg), and thereto a corn oil was added to prepare a test solution (10 mL). Said test solution was orally administered to the mouse at a rate of 10 mL per 1 kg of the body weight of the mouse with a gastric sonde. To a control group, a 7% dimethylformamide/corn oil solution alone was orally administered. Each administration was repeated 3 times per group.
After the oral administration, 20 cat fleas were deposited on each mouse. Two (2) days later, the number of cat fleas was examined and the mortality was calculated by the following formula:
Mortality (%)=100×(number of dead cat fleas/number of cat fleas tested)

[3] = tested on: ticks (Haemaphysalis longicornis); test: Dropping application against dog-infested ticks; type: in vivo
Procedure: Dropping Application Against Dog-Infested Ticks (Haemaphysalis longicornis)
(§2) Each (0.375 or 1.5 g) of the present hydrazide compound (1) and Comparative compound (52) was dissolved in diethylene glycol monoethyl ether (6.0 g) to prepare a test solution. Said test solution was directly dropped on the skin of the neck and back of the dog while pushing aside fur thereon at a rate of 0.1 ml per 1 kg of the dog's body weight (dose amount: 5 or 20 mg/kg). This is referred to as a test group. On the other hand, diethylene glycol monoethyl ether alone was applied dropwise to a placebo group.
Twenty eight (28) days later, 100 test ticks were deposited on each dog. Two (2) days after the deposit, the number of living ticks, which were infesting the dogs, was examined. When the examination was completed, all infested ticks were removed from the dogs. The infestation rate and control rate were calculated by the following formulae: […]
Method of calculating infestation rate and control rate at 30 days after the application:
Infestation rate (%) at X days after application=(number of living ticks at X days/number of ticks deposited)×100
(§3) Control rate (%) at X days after application=(infestation rate of placebo group at X days−infestation rate of test group at X days)/infestation rate of placebo group at X days×100
(§4) In addition, if an infestation rate of a test group is higher than a placebo group, then the control rate is deemed to be 0%.

[4] = tested on: cat fleas (Ctenocephalides felis); test: Oral administration against cat-infested cat fleas; type: in vivo; details: oral with cat food, dose 20 mg/kg
Procedure: Oral Administration Against Cat-Infested Cat Fleas (Ctenocephalides felis)
Each of the present hydrazide compound (1) and Comparative compound (52) was mixed with a cat food, and orally administered to a cat in a dose amount of 20 mg per 1 kg of the cat's body weight. This is referred to as a test group. On the other hand, the cat food alone was fed to a placebo group.
(§5) Forty two (42) days later, 50 test fleas were deposited on each cat. Two (2) days after the deposit, the number of living fleas, which were infesting the cats, was examined. When the examination was completed, all infested fleas were removed from the cats. The infestation rate and control rate were calculated by the following formulae: […]
Method of calculating infestation rate and control rate at 44 days after the administration:
Infestation rate (%) at X days after administration=(number of living fleas at X days/number of fleas deposited)×100
Control rate (%) at X days after administration=(infestation rate of placebo group at X days−infestation rate of test group at X days)/infestation rate of placebo group at X days×100
as §4

[5] = tested on: ticks (Haemaphysalis longicornis); test: Oral administration against mouse-infested ticks; type: in vivo; details: 20 mg in 10 mL test solution at 10 mL per 1 kg body weight, 2 days after administration
Procedure: Oral Administration Against Mouse-Infested Ticks (Haemaphysalis longicornis)
The previous day before oral administration, 30 test ticks (Haemaphysalis longicornis, young ticks) were deposited on a mouse. Before the oral administration, uninfested ticks were removed.
as §1, with “at the” for “at a”
Two (2) days after the administration, the number of dead ticks was examined and the mortality was calculated by the following formula:
Mortality (%)=100×(number of dead ticks/infested ticks before oral administration)

[6] = tested on: ticks (Haemaphysalis longicornis); test: Oral administration against dog-infested ticks; type: in vivo; details: dog (beagle), oral gelatin capsules
Procedure: Oral Administration Against Dog-Infested Ticks (Haemaphysalis longicornis)
The previous day before oral administration, 100 test ticks (Haemaphysalis longicornis, young ticks) were deposited on a dog (beagle). Before the oral administration, infested ticks were counted.
Each of the present hydrazide compound (1) and Comparative compound (52) was filled into gelatin capsules, and forcibly and orally administered to a dog in a dose amount of 5 mg or 20 mg per 1 kg of the dog's body weight. This is referred to as a test group. On the other hand, gelatin capsules alone was orally administered to a placebo group.
Two (2) days after the administration, the number of living ticks, which were infesting the dogs, was examined.
When the examination was completed, all infested ticks were removed from the dogs. The infestation rate and control rate were calculated by the following formulae: […]
Method of calculating infestation rate and control rate at the initial stage (2 days) after the administration:
Infestation rate (%) at X days after administration=(number of living ticks at X days/number of living ticks before administration)×100
Control rate (%) at X days after administration (infestation rate of test group before administration−infestation rate of test group at X days)/infestation rate of test group before administration×100
as §4

[7] = tested on: ticks (Haemaphysalis longicornis); test: Dropping application against mouse-infested ticks; type: in vivo; details: 0.1% w/v solution 200 μL dropwise to whole body surface, 2 days after application
Procedure: Dropping Application Against Mouse-Infested Ticks (Haemaphysalis longicornis)
The previous day before dropping application, 30 test ticks (Haemaphysalis longicornis, young ticks) were deposited on a mouse. Before the dropping application, uninfested ticks were removed.
The present hydrazide compound (1) (5 mg) was dissolved in a mixture (5 mL) of propylene carbonate and diethylene glycol monoethyl ether in equal amounts to prepare a 0.1% w/v solution. Said solution (200 μL) was applied dropwise to the whole body surface of a mouse with a pipette. To a control group, the mixture (200 μL) alone was applied. Each application was repeated 3 times per group.
Two (2) days after the application, the number of dead ticks was examined and the mortality was calculated by the following formula:
Mortality (%)=100×(number of dead ticks/infested ticks before dropping application)

[8] = tested on: cat fleas (Ctenocephalides felis); test: Dropping application against cat-infested cat fleas; type: in vivo
Procedure: Dropping Application Against Cat-Infested Cat Fleas (Ctenocephalides felis)
The previous day before dropping application, 50 test fleas (cat flea adults) were deposited on a cat. Before the dropping application, infested fleas were counted.
as §2, with “Each (0.75” for “Each (0.375”, “the cat” for “the dog”, “thereon on” for “thereon”, “the cat's” for “the dog's”, “amount: 10” for “amount: 5”
Two (2) days after the application, the number of living fleas, which were infesting the cats, was examined. When the examination was completed, all infested fleas were removed from the cats.
as §5, with “Twenty eight (28)” for “Forty two (42)”, “re-deposited” for “deposited”, “re-deposit,” for “deposit,”
(i) Method of calculating infestation rate and control rate at the initial stage (2 days) after the application:
Infestation rate (%) at X days after application=(number of living fleas at X days/number of living fleas before application)×100
Control rate (%) at X days after application=(infestation rate of test group before application−infestation rate of test group at X days)/infestation rate of test group before application×100
(ii) Method of calculating infestation rate and control rate at 30 days after the application:
Infestation rate (%) at X days after application=(number of living fleas at X days/number of fleas deposited)×100
as §3, §4

Row | Compound | mortality at 100 mg/m2 [1] [%] | Mortality [2] [%] | Tick control rates (%) at 30 days after the application ([3]; dose 5 mg/kg) [%] | Tick control rates (%) at 30 days after the application ([3]; dose 20 mg/kg) [%] | Flea control rates (%) at 44 days after the administration [4] [%] | Mortality [5] [%] | Tick control rates (%) at 2 days after the application ([6]; dose 5 mg/kg) [%] | Tick control rates (%) at 2 days after the application ([6]; dose 20 mg/kg) [%] | Mortality [7] [%] | Flea control rates (%) at 2 days after the application ([8]; dose 10 mg/kg) [%] | Flea control rates (%) at 30 days after the application ([8]; dose 10 mg/kg) [%] | Flea control rates (%) at 2 days after the application ([8]; dose 20 mg/kg) [%] | Flea control rates (%) at 30 days after the application ([8]; dose 20 mg/kg) [%]
1 | CN(NC(=O)C1CC1)c1cc(C2=NOC(c3cc(Cl)cc(Cl)c3)(C(F)(F)F)C2)ccc1Cl (stereo not drawn) [(2), N′-methyl-N′-{2-chloro-5-[5-(3,5-dichlorophenyl)-5-trifluoromethyl-4,5-dihydroisoxazol-3-yl]phenyl}cyclopropanecarbohydrazide] | ≥ 90 |  |  |  |  |  |  |  |  |  |  |  | 
2 | O=C(NNc1cc(C2=NOC(c3cc(Cl)cc(Cl)c3)(C(F)(F)F)C2)ccc1Cl)C1CC1 (stereo not drawn) [Compound (1), N′-{2-chloro-5-[5-(3,5-dichlorophenyl)-5-trifluoromethyl-4,5-dihydroisoxazol-3-yl]phenyl}cyclopropanecarbohydrazide] |  | ≥ 90 | 100 | 100 | 94 | ≥ 90 | 100 | 100 | ≥ 70 | 92 | 84 | 96 | 94
3 | CC(=O)NNc1cc(C2=NOC(c3cc(Cl)cc(Cl)c3)(C(F)(F)F)C2)ccc1Cl (stereo not drawn) [Comparative compound (52), N′-{5-[5-(3,5-dichlorophenyl)-5-trifluoromethyl-4,5-dihydroisoxazol-3-yl]-2-chlorophenyl}acetohydrazide, reference compound] |  |  | 29 |  | 68 |  | 26 |  |  | 58 | 74 |  | 

— patent US20120029040A1, “ANIMAL ECTOPARASITE-CONTROLLING AGENT” (priority 2010, published 2012)
